From patent US11013696B2, “Lipids and lipid compositions for the delivery of active agents” (Novartis AG, priority 2013, dated 2021)

Test: Percent encapsulation of mRNA in lipid nanoparticles (Quant-iT Ribogreen)
Type: physicochemical
Details: Table 2; leptin mRNA in LNP with the cationic lipid
Experimental: All equipment and disposable supplies are certified free of RNase activity by the manufacturer or rendered RNase free by use of the RNaseZap reagent (LifeTechnologies). mRNA is encapsulated at a cationic lipid amine to mRNA phosphate (N:P) molar ratio of 4:1. Lipids (cationic lipid, DSPC, cholesterol and lipidated PEG or stealth lipid) are dissolved in ethanol. The molar ratios are 40:10:38:2, respectively. The mixture is sonicated briefly, then gently agitated for 5 minutes and then maintained at 37° C. until use. mRNA is exchanged into citrate buffer pH 5.8-6.0 by use of Amicon Ultra-15 centrifugal concentrators, and the final concentration is adjusted to 0.5 mg/ml and held at 37° C. until use. An equal volume of lipids in ethanol, mRNA in citrate buffer, and citrate buffer alone are drawn into disposable syringes. Tubing leading from syringes containing lipids and mRNA are attached to the T junction, and tubing leading from the syringe containing citrate buffer alone is paired with the tubing exiting the T-junction over a collection vessel containing a stir bar on an active stir plate. Syringes are placed in a syringe pump set to expel contents at a flow rate of 1 ml per minute.
The pump is activated, and the collected mRNA in lipid nanoparticles is transferred to SnakeSkin dialysis tubing (10,000 MWCO, Thermo Scientific). Material is dialyzed against RNAse- and pyrogen-free 1× phosphate buffered saline overnight at 4° C.
Percent encapsulation of mRNA in lipid nanoparticles is determined using the Quant-iT Ribogreen RNA Assay kit (Life Technologies). The LNP-mRNA suspension is assayed in buffer (mRNA outside the particle), and buffer plus Triton X-100 detergent (total mRNA). The difference calculated is the mRNA inside the particle. Prepare a 1000 ng/mL stock from the RNA provided in the kit and use this to generate a standard curve (0 ng/ml, 15.63-1000 ng/ml) in TE and TE+0.75% Triton X-100. Prepare LNP-mRNA samples in TE buffer and TE buffer +0.75% Triton X-100 with appropriate dilution so that reading is in the range of standard curve (400-2,000 fold). In a 384-well plate (Costar non-treated #3573) add 0.04 ml of standard (in duplicate) or sample (in triplicate) per well. Dilute Ribogreen reagent 240-fold in TE buffer and add 0.06 ml per well. Mix contents of wells and measure fluorescence (excitation=480 nm, emission=520 nm). Subtract background values (no RNA) from standard and test sample values and determine the concentrations of RNA in the samples using the standard curves. Determine the percent encapsulation of the sample by dividing the difference in concentrations between sample+triton and sample in buffer alone by the sample+triton concentration.

| SMILES | % encapsulation mRNA Leptin |
| --- | --- |
| CCCCCCCCCCCCC(CCC(=O)OC(COC(=O)CCCCCCC)COC(=O)CCCCCCC)OC(=O)OCCCN(C)CC (stereo not drawn) [Example 93, 2-((4-(((3-(ethyl(methyl)amino)propoxy)carbonyl)oxy)hexadecanoyl)oxy)propane-1,3-diyl dioctanoate] | 82.0% |
| CCCCCCCCCCCCC(CCOC(=O)CCCCC(OCCCCCCCC)OCCCCCCCC)OC(=O)OCCCN1CCN(C)CC1 (stereo not drawn) [Example 110, 3-(((3-(4-methylpiperazin-1-yl)propoxy)carbonyl)oxy)pentadecyl 6,6-bis(octyloxy)hexanoate] | 59.3% |
| CCCCCCCCCCCCC(CCCC(=O)OCCCC(OCCCCCCCC)OCCCCCCCC)OC(=O)OCCCN(CC)CC (stereo not drawn) [Example 129, 4,4-bis(octyloxy)butyl 5-(((3-(diethylamino)propoxy)carbonyl)oxy)heptadecanoate] | 96.8% |
| CCCCCCCCCCCCC(CCOC(=O)CCCCC(COC(=O)CCCCCCC)COC(=O)CCCCCCC)OC(=O)OCCCN1CCCCC1 (stereo not drawn) [Example 141, 2-(5-oxo-5-((3-(((3-(piperidin-1-yl)propoxy)carbonyl)oxy)pentadecyl)oxy)pentyl)propane-1,3-diyl dioctanoate] | 94.9% |
| CCCCCCCCCCCCCC(=O)OCC(COC(=O)CCCCCCCCCCCCC)OC(=O)CCC(CCCCCCCCCCCC)OC(=O)OCCCN(C)CC (stereo not drawn) [Example 86, 2-((4-(((3-(ethyl(methyl)amino)propoxy)carbonyl)oxy)hexadecanoyl)oxy)propane-1,3-diyl ditetradecanoate] | 68.5% |
| CCCCCCCCCCCCC(CCOC(=O)CCCCC(OCCCCCCCC)OCCCCCCCC)OC(=O)OCCCN1CCNCC1 (stereo not drawn) [Example 108, 3-(((3-(piperazin-1-yl)propoxy)carbonyl)oxy)pentadecyl 6,6-bis(octyloxy)hexanoate] | 94.6% |
| CCCCCCCCCCCCC(CCCOC(=O)CCCCC(COC(=O)CCCCCCC)COC(=O)CCCCCCC)OC(=O)OC1CCN(C)CC1 (stereo not drawn) [Example 137, 2-(5-((4-((((1-methylpiperidin-4-yl)oxy)carbonyl)oxy)hexadecyl)oxy)-5-oxopentyl)propane-1,3-diyl dioctanoate] | 98.1% |
| CCCCCCCCCCCCC(CCOC(=O)CCCCC(OCCCCCCCC)OCCCCCCCC)OC(=O)CCC1CCN(C)CC1 (stereo not drawn) [Example 121, 3-((3-(1-methylpiperidin-4-yl)propanoyl)oxy)pentadecyl 6,6-bis(octyloxy)hexanoate] | 71.2% |
| CCCCCCCCCCCCC(CCOC(=O)OCCCN(CC)CC)OC(=O)CCCCC(COC(=O)CCCCCCC)COC(=O)CCCCCCC (stereo not drawn) [Example 142, 2-(12-dodecyl-3-ethyl-8,14-dioxo-7,9,13-trioxa-3-azaoctadecan-18-yl)propane-1,3-diyl dioctanoate] | 92.5% |
| CCCCCCCCCCCCC(CCCOC(=O)CCCCC(COC(=O)CCCCCCC)COC(=O)CCCCCCC)OC(=O)OCCCN(CC)CC (stereo not drawn) [Example 138, 2-(10-dodecyl-3-ethyl-8,15-dioxo-7,9,14-trioxa-3-azanonadecan-19-yl)propane-1,3-diyl dioctanoate] | 92.9% |
| CCCCCCCCCCCCC(CCOC(=O)CCCCC(OCCCCCCCC)OCCCCCCCC)OC(=O)OCC1CCN(C)CC1 (stereo not drawn) [Example 111, 3-((((1-methylpiperidin-4-yl)methoxy)carbonyl)oxy)pentadecyl 6,6-bis(octyloxy)hexanoate] | 74.7% |
| CCCCCCCCCCCCC(OC(=O)OCCCN(CC)CC)C(=O)OC(COC(=O)CCCCCCC)COC(=O)CCCCCCC (stereo not drawn) [Example 100, 2-((2-(((3-(diethylamino)propoxy)carbonyl)oxy)tetradecanoyl)oxy)propane-1,3-diyl dioctanoate)] | 91.5% |
| CCCCCCCCOC(CCCCC(=O)OCCC(CCCCCCCC)OC(=O)OCCCN(CC)CC)OCCCCCCCC (stereo not drawn) [Example 125, 3-(((3-(diethylamino)propoxy)carbonyl)oxy)undecyl 6,6-bis(octyloxy)hexanoate] | 95.1% |
| CCCCCCCCCCCCC(CCC(=O)OC(COC(=O)CCCCCCCCCCC)COC(=O)CCCCCCCCCCC)OC(=O)OCCCN(C)CC (stereo not drawn) [Example 89, 2-((4-(((3-(ethyl(methyl)amino)propoxy)carbonyl)oxy)hexadecanoyl)oxy)propane-1,3-diyl didodecanoate] | 87.0% |
| CCCCCCCCCCCCC(CCOC(=O)CCC(OCCCCCCCC)OCCCCCCCC)OC(=O)OCCCN(C)C (stereo not drawn) [Example 106, 3-(((3-(dimethylamino)propoxy)carbonyl)oxy)pentadecyl 4,4-bis(octyloxy)butanoate] | 96.3% |
| CCCCCCCCOC(CCCCC(=O)OCCC(CCCOC(=O)CCCCCCC)OC(=O)OCCCN(CC)CC)OCCCCCCCC (stereo not drawn) [Example 128, 6-((6,6-bis(octyloxy)hexanoyl)oxy)-4-(((3-(diethylamino)propoxy)carbonyl)oxy)hexyl octanoate] | 86.2% |
| CC/C=C\C/C=C\C/C=C\CCCCCCCC(=O)OCC(COC(=O)CCCCCCC/C=C\C/C=C\C/C=C\CC)OC(=O)CCC(CCCCCCCCCCCC)OC(=O)OCCCN(C)C (stereo not drawn) [Example 82, (9Z,9′Z,12Z,12′Z,15Z,15′Z)-2-((4-(((3-(dimethylamino)propoxy)carbonyl)oxy)hexadecanoyl)oxy)propane-1,3-diyl bis(octadeca-9,12,15-trienoate)] | 81.9% |
| CCCCCCCCCCCCC(CCCOC(=O)CCCCC(COC(=O)CCCCCCC)COC(=O)CCCCCCC)OC(=O)O[C@H]1CCN(C)C1 (stereo partly drawn) [Example 134, 2-(5-((4-(((((S)-1-methylpyrrolidin-3-yl)oxy)carbonyl)oxy)hexadecyl)oxy)-5-oxopentyl)propane-1,3-diyl dioctanoate] | 96.6% |
| CCCCCCCCCCCCC(CCOC(=O)CCCCC(OCCC(CC)CC)OCCC(CC)CC)OC(=O)OCCCN(C)C (stereo not drawn) [Example 116, 3-(((3-(dimethylamino)propoxy)carbonyl)oxy)pentadecyl 6,6-bis((3-ethylpentyl)oxy)hexanoate] | 93.3% |
| CCCCCCCCCCCCC(CCOC(=O)CCCCC1OC(CCCCCCC)CC(CCCCCCC)O1)OC(=O)OCCCN(CC)CC (stereo not drawn) [Example 124, 3-(((3-(diethylamino)propoxy)carbonyl)oxy)pentadecyl 5-(4,6-diheptyl-1,3-dioxan-2-yl)pentanoate] | 98.0% |
| CCCCCCCC(=O)OCCCCCCCCCCC(CCOC(=O)CCCCCC(CCCCCC)CCCCCC)OC(=O)OCCCN(C)C (stereo not drawn) [Example 64, 3-(((3-(dimethylamino)propoxy)carbonyl)oxy)-13-(octanoyloxy)tridecyl 7-hexyltridecanoate] | 93.0% |
| CCCCCCCCCCCCC(CCOC(=O)CCCCC(OCCCCCCCC)OCCCCCCCC)OC(=O)OCCN(CC)CC (stereo not drawn) [Example 113, 3-(((2-(diethylamino)ethoxy)carbonyl)oxy)pentadecyl 6,6-bis(octyloxy)hexanoate] | 37.5% |
| CCCCCCCC/C=C\CCCCCCCC(=O)OCC(COC(=O)CCCCCCC/C=C\CCCCCCCC)OC(=O)CCC(CCCCCCCCCCCC)OC(=O)OCCCN(C)C (stereo not drawn) [Example 83, (Z)-2-((4-(((3-(dimethylamino)propoxy)carbonyl)oxy)hexadecanoyl)oxy)propane-1,3-diyl dioleate] | 48.9% |
| CCCCCCCCCCCCC(CCCOC(=O)CCCCC(COC(=O)CCCCCCC)COC(=O)CCCCCCC)OC(=O)O[C@@H]1CCN(C)C1 (stereo partly drawn) [Example 135, 2-(5-((4-(((((R)-1-methylpyrrolidin-3-yl)oxy)carbonyl)oxy)hexadecyl)oxy)-5-oxopentyl)propane-1,3-diyl dioctanoate] | 96.2% |
| CCCCCCCCCCCCC(CCOC(=O)CCCCC(OCCCCCCCC)OCCCCCCCC)OC(=O)OCCCCN(CC)CC (stereo not drawn) [Example 109, 3-(((4-(diethylamino)butoxy)carbonyl)oxy)pentadecyl 6,6-bis(octyloxy)hexanoate] | 80.6% |
| CCCCCCCCCCCCC(CCOC(=O)CCCCC(OCCCCCCCC)OCCCCCCCC)OC(=O)[C@H]1CCCN1 (stereo partly drawn) [Example 119, (2R)-1-((6,6-bis(octyloxy)hexanoyl)oxy)pentadecan-3-yl pyrrolidine-2-carboxylate] | 95.7% |
| CCCCCCCCCCCCC(CCOC(=O)CCCCC(OCCCCCCCC)OCCCCCCCC)OC(=O)C1(C)CCN(C)C1 (stereo not drawn) [Example 120, 1-((6,6-bis(octyloxy)hexanoyl)oxy) pentadecan-3-yl 1,3-dimethylpyrrolidine-3-carboxylate] | 96.1% |
